# Test results as given in ChEMBL document CHEMBL2034858, “An efficient one-pot synthesis, structure, antimicrobial and antioxidant investigations of some novel quinolyldibenzo[b,e][1,4]diazepinones” (2012).
# System: Mycobacterium tuberculosis
# Assay: Antitubercular activity against Mycobacterium tuberculosis H37Rv at > 256 ug/mL
# Format: functional
compound,measurement,value
Cc1ncc([N+](=O)[O-])n1CCO [METRONIDAZOLE],growth inhibition (GI),99%
